Measured values published in patent publication US9416141B2 (University of Washington through its Center for …, priority 2012, dated 2016).
Counter-ions that a name gives are not always drawn.

Tested on: hair cells
Assay: Hair cell toxicity assay in zebrafish (neomycin-induced hair cell death, DASPEI staining of neuromasts)
Format: in vivo
Settings: Danio rerio; for Emax at 25 µM: maximum observed @ 25 μM test compound; for EC50: zebrafish larvae 5-7 dpf, 1 h pre-treatment, then 200 micromolar neomycin + test compound 30 min, read-out: HC50 (concentration that would produce 50% hair cell survival)
How it was run: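 Hair cell survival, as % of untreated controls, came from DASPEI scoring (0-2 each, ten neuromasts on one side) in 5-7 dpf larvae. These had 1 h compound pre-exposure (0.010-25 μM), then 200 μM neomycin with compound for 30 min. HCmax is peak protection; HC50 interpolated between flanking concentrations only when ≥50% survive.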

[1] = 200 micromolar neomycin, read-out: Max HC Protection (HCmax, % hair cell survival)

SMILES	Emax at 25 µM [1] [%]	EC50 [nM]	Emax at 2.8 µM (maximum observed @ 2.8 μM test compound, 200 micromolar neomycin, read-out: Max HC Protection (HCmax, % hair cell survival)) [%]
CC[N+]1(C)CCCc2c(sc(NC(=O)Nc3ccc(Cl)cc3)c2C(N)=O)C1 (centres unmarked) [Example 173, 3-Carbamoyl-2-[3-(4-chlorophenyl)ureido]-7-ethyl-7-methyl-5,6,7,8-tetrahydro-4H-thieno[2,3-c]azepin-7-ium iodide]	102	1000 to 10000	–
CCN1CCc2c(sc(NC(=O)Nc3ccc(Cl)cc3)c2C(=O)NCCO)C1 [Example 101, 2-[3-(4-Chlorophenyl)ureido]-6-ethyl-N-(2-hydroxyethyl)-4,5,6,7-tetrahydrothieno[2,3-c]pyridine-3-carboxamide hydrochloride]	74	1000 to 10000	–
CCN1CCc2c(sc(NC(=O)Nc3ccc(C(=O)O)cc3)c2C(N)=O)C1 [Example 32, 4-[3-(3-Carbamoyl-6-ethyl-4,5,6,7-tetrahydrothieno[2,3-c]pyridin-2-yl)ureido]benzoic acid trifluoroacetate]	19	–	–
COCCCN1CCc2c(sc(NC(=O)Nc3ccc(Cl)cc3)c2C(N)=O)C1 [Example 3, 2-[3-(4-Chlorophenyl)ureido]-6-(3-methoxypropyl)-4,5,6,7-tetrahydrothieno[2,3-c]pyridine-3-carboxamide hydrochloride]	76	1000 to 10000	–
CC[N+]1(CC2CCC2)CCc2c(sc(NC(=O)Nc3ccc(Cl)cc3)c2C(N)=O)C1 (centres unmarked) [Example 190, 3-carbamoyl-2-[3-(4-chlorophenyl)ureido]-6-(cyclobutylmethyl)-6-ethyl-4,5,6,7-tetrahydrothieno[2,3-c]pyridin-6-ium chloride]	–	< 1000	100
CC(C)(C)C[N+]1(C)CCc2c(sc(NC(=O)Nc3ccc4ccccc4c3)c2C(N)=O)C1 (centres unmarked) [Example 193, 3-Carbamoyl-6-methyl-2-(3-naphthalen-2-ylureido)-6-neopentyl-4,5,6,7-tetrahydrothieno[2,3-c]pyridin-6-ium trifluoroacetate]	98	< 1000	–
